Experimental data as given in article PMC5478727, “A Novel Small Molecule GDNF Receptor RET Agonist, BT13, Promotes Neurite Growth from Sensory Neurons in Vitro and Attenuates Experimental Neuropathy in the Rat” (Frontiers in Pharmacology, 2017).

Tests used:
TrkB = molecular target: T1, TrkB (Rattus norvegicus, UniProt Q63604); assay: TrkB phosphorylation assay in MG87TrkB cells; assay type: cell-based; details: BT13 10–100 μM, BDNF positive control
T1 construct: expressed in transfected cells; host or cells: MG87 murine fibroblasts (MG87TrkB)
Description: (§1) MG87RET, MG87TrkA, or MG87TrkB were plated on 35 mm tissue culture dishes 1–2 days before the experiment to achieve 90–95% of confluency of the cells at the day of stimulation with tested substances. If necessary, cells were transfected with 4 μg/well of GFRα1-, GFRα3-, or green fluorescent protein (GFP)-expressing plasmid using Lipofectamine 2000 (Invitrogen) for DNA delivery as described by manufacturer. Before the experiment cells were starved in serum-free DMEM containing 15 mM HEPES, pH 7.2 and 1% DMSO for 4 h and stimulated with BT13 or neurotrophic factors. Then cells were washed once with ice-cold PBS containing 1 mM Na3VO4 and 1 mM NaF and lysed on ice in 1 ml per well of RIPA-modified buffer (50 mM Tris-HCl, pH 7.4, 150 mM NaCl, 1 mM EDTA, 1% NP-40, 1% TX-100, 10% glycerol, EDTA-free protease inhibitor cocktail (Roche), 1 mM Na3VO4, 2.5 mg/ml of sodium deoxycholate, 1 mM NaF). Plates were incubated at +4°C on the horizontal shaker for 30 min with vigorous shaking. Afterwards, 80–100 μl aliquot was taken from each well to prepare whole cell lysates. This aliquot was mixed with equal volume of 2x Laemmli loading buffer (4% SDS, 20% glycerol, 10% 2-mercaptoethanol, 0.004% bromphenol blue, 0.125 M Tris HCl, pH 6.8) and boiled for 10 min at 100°C. Remaining cell lysates were used for immunoprecipitation of RET or Trk receptors. […]

TrkA = TrkA phosphorylation assay in MG87TrkA cells; assay type: cell-based; details: BT13 10–100 μM, NGF positive control
Description: as §1

RET = molecular target: T2, RET (Homo sapiens, UniProt P07949); assay: RET phosphorylation assay in MG87RET fibroblasts (GFRα3/RET and GFP/RET); assay type: cell-based, murine; details: 25–50 μM; in the presence and absence of GFRα3 co-receptor
T2 construct: full-length human RET (long isoform) in pCR3.1; expressed in transfected cells; host or cells: MG87RET murine fibroblasts

[1] = Pharmacokinetics after intravenous injection; assay type: in vivo; details: rat, 10 mg/kg intravenously
[2] = molecular target: T3, serotonin receptor 5-HT1A (Homo sapiens, UniProt P08908); assay: CEREP 5-HT1A (h) (agonist radioligand); assay type: binding; details: BT13 1 μM; Cat. No. 0131; average of duplicate; read-out: Percentage of inhibition/potentiation from control
T3 construct: purchased CEREP (contract assay) 0131

[3] = molecular target: T4, vasoactive intestinal peptide receptor PAC1 (PACAP) (Homo sapiens, UniProt P41586); assay: CEREP PAC1 (PACAP) (h) (agonist radioligand); assay type: binding; details: BT13 1 μM; Cat. No. 1518; average of duplicate; read-out: Percentage of inhibition/potentiation from control
T4 construct: purchased CEREP (contract assay) 1518

neurokinin receptor NK2 = neurokinin receptor NK2 (Homo sapiens, UniProt P21452); assay: CEREP NK2 (h) (agonist radioligand); assay type: binding; details: read-out: Percentage of inhibition/potentiation from control
[4] = Plasma stability, human plasma; assay type: in vitro ADME; details: read-out: Plasma stability (% remaining after 1 h)
[5] = molecular target: T5, monoamine oxidase A (MAO-A) (Rattus norvegicus, UniProt P21396); assay: CEREP MAO-A (antagonist radioligand); assay type: binding; details: BT13 1 μM; Cat. No. 0443; average of duplicate; read-out: Percentage of inhibition/potentiation from control
T5 construct: purchased CEREP (contract assay) 0443

[6] = test system: adrenergic receptor alpha 2; assay: CEREP Alpha 2 (non-selective; antagonist radioligand); assay type: binding; details: BT13 1 μM; Cat. No. 0011; average of duplicate

T5 sequence (P21396 whole entry): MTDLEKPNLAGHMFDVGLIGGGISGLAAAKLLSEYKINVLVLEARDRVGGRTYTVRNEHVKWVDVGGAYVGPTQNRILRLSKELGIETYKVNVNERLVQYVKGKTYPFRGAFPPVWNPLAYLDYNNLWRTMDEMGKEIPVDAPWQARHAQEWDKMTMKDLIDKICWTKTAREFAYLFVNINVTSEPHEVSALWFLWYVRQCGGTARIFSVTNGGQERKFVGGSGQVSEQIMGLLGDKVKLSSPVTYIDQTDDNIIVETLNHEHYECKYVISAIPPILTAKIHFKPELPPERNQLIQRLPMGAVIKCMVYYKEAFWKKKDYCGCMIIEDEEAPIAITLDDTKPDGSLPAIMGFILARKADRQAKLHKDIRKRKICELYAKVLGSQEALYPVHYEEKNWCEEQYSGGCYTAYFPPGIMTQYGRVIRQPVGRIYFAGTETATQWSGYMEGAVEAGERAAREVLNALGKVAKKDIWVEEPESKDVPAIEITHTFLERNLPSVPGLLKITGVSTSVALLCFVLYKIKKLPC
T2 sequence (P07949 29-1114): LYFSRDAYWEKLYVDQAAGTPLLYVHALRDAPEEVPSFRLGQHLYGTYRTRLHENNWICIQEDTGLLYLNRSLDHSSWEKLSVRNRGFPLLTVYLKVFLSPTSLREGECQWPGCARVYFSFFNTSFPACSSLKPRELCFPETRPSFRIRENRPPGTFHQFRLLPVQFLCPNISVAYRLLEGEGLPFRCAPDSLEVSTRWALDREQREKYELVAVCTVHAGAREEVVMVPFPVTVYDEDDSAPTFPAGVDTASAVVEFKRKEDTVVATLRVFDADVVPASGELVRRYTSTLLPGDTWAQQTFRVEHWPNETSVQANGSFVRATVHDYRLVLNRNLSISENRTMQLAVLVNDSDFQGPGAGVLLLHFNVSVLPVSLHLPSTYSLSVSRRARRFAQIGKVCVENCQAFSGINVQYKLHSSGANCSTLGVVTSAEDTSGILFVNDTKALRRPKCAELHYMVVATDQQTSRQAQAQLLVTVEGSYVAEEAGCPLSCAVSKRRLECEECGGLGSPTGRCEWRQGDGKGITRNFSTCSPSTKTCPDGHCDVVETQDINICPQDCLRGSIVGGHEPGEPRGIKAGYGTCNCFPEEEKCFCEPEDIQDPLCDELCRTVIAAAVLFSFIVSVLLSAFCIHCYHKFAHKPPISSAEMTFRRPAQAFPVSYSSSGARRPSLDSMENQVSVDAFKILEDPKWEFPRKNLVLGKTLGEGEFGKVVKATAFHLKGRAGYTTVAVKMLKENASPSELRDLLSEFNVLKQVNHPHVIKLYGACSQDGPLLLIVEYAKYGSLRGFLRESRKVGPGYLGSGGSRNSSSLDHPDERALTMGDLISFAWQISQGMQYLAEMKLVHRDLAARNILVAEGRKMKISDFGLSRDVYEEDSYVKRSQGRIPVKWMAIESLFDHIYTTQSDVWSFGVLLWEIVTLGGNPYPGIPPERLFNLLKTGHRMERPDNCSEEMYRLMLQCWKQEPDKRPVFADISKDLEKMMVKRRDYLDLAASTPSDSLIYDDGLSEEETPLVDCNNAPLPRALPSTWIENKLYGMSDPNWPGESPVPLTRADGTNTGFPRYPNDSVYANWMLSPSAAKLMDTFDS
T3 sequence (P08908 whole entry): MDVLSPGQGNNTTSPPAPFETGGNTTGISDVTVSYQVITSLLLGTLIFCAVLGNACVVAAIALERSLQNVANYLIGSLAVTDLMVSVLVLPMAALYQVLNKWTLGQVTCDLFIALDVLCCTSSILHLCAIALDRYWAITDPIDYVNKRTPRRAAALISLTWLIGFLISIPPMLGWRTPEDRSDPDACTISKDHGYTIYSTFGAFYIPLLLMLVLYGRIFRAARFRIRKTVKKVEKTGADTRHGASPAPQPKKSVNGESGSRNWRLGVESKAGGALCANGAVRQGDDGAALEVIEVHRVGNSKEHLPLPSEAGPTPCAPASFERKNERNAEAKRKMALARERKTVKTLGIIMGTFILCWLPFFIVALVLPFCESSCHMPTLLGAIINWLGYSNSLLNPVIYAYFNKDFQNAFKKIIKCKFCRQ
Chain of neurokinin receptor NK2 (P21452 whole entry): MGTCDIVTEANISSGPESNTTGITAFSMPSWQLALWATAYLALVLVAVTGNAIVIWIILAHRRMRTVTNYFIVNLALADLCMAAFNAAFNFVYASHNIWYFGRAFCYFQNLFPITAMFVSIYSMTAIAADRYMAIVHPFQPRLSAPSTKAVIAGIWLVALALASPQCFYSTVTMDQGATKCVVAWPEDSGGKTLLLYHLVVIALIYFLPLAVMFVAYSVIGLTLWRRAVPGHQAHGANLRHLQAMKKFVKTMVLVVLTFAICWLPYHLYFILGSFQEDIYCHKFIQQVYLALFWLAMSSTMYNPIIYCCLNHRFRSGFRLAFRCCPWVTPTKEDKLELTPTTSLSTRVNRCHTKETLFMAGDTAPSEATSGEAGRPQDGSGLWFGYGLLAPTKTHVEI
T4 sequence (P41586 21-468): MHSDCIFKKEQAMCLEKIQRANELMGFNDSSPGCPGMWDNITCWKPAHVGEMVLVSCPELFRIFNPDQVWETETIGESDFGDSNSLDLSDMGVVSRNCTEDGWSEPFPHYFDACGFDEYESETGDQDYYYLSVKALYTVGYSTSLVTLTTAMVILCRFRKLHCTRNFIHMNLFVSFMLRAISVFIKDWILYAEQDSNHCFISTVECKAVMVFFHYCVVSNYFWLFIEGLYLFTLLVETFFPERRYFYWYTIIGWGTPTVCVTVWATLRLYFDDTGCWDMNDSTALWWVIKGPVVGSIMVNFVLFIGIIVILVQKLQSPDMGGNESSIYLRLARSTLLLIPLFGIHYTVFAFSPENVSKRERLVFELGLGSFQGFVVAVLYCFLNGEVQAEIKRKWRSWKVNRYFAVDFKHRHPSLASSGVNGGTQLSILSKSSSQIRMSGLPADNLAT
T1 sequence (Q63604 32-821): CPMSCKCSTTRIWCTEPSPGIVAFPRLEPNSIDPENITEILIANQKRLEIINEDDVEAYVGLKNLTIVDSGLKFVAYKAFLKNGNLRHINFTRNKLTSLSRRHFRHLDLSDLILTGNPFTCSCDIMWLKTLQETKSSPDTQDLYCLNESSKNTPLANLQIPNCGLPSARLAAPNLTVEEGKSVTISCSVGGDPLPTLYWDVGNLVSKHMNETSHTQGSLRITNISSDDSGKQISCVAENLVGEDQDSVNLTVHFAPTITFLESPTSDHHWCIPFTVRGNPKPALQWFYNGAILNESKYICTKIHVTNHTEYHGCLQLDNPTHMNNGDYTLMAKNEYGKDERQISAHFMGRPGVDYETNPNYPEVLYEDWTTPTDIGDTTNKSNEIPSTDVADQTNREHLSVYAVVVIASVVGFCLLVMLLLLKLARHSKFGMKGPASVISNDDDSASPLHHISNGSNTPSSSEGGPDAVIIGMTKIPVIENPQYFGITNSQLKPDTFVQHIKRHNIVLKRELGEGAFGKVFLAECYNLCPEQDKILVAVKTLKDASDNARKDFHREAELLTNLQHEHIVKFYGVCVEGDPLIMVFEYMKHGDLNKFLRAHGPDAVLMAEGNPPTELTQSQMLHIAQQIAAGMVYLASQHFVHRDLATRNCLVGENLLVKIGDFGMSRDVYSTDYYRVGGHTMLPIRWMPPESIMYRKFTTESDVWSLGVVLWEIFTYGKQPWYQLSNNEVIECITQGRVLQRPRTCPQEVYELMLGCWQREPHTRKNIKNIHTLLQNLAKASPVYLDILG

CCN(CC)S(=O)(=O)c1ccc(OC)c(N2CCN(C(=O)c3ccc(F)cc3C(F)(F)F)CC2)c1 [BT13]
TrkB phosphorylation, Western blotting (TrkB): did not produce any detectable increase | TrkA phosphorylation, Western blotting (TrkA): did not produce any detectable increase | RET phosphorylation (170 kD mature glycosylated form), Western blotting (RET): elicited phosphorylation | Kp ([1]; male, Sprague Dawley, iv, plasma and brain samples 1, 3 and 6 h, read-out: BBB penetration): 0.55 to 0.68 | clearance ([1]; male, Sprague Dawley, plasma, iv): 78.3 mL/min | Vd ([1]; male, Sprague Dawley, plasma, iv, one-compartment model): 23.6 L/kg | half-life ([1]; male, Sprague Dawley, plasma, iv, one-compartment model, read-out: t1/2 (half-life in the blood) (converted)): 3.47 h | BBB penetration ([1]; plasma and brain samples 1, 3 and 6 h, 10 mg/kg): 55–68% | inhibition at 1 µM [2]: -8% | inhibition at 1 µM [3]: 14% | inhibition at 1 µM (neurokinin receptor NK2): 5% | remaining at 1 h [4]: 97 ± 0.1% | inhibition at 1 µM [5]: 5% | Percentage of inhibition/potentiation from control [6]: −6%
